Experimental data as given in patent US9765358B2 (priority 2015, dated 2017).

What was measured:
Lactobacillus plantarum = format: cell-based
Clostridium beijerinckii = format: cell-based

| Molecule | antibiotic susceptibility (disc, zone of clearance) (Lactobacillus plantarum) | antibiotic susceptibility (disc, zone of clearance) (Clostridium beijerinckii) |
| --- | --- | --- |
| CC[C@H]1OC(=O)[C@H](C)[C@@H](O[C@H]2C[C@@](C)(OC)[C@@H](O)[C@H](C)O2)[C@H](C)[C@@H](O[C@@H]2O[C@H](C)C[C@H](N(C)C)[C@H]2O)[C@](C)(O)C[C@@H](C)CN(C)[C@H](C)[C@@H](O)[C@]1(C)O [azithromycin] | susceptible | susceptible |
| CC1(C)S[C@@H]2[C@H](NC(=O)C(C(=O)O)c3ccccc3)C(=O)N2[C@H]1C(=O)O (stereo partly drawn) [carbenicillin] | resistant | susceptible |
| Cc1ncc([N+](=O)[O-])n1CCO [metronidazole] | resistance | susceptible |
| CN[C@H](CC(C)C)C(=O)N[C@H]1C(=O)N[C@@H](CC(N)=O)C(=O)N[C@H]2C(=O)N[C@H]3C(=O)N[C@H](C(=O)N[C@H](C(=O)O)c4cc(O)cc(O)c4-c4cc3ccc4O)[C@H](O)c3ccc(c(Cl)c3)Oc3cc2cc(c3O[C@@H]2O[C@H](CO)[C@@H](O)[C@H](O)[C@H]2O[C@H]2C[C@](C)(N)[C@H](O)[C@H](C)O2)Oc2ccc(cc2Cl)[C@H]1O [vancomycin] |  | susceptible |
| amoxicillin/clavulinic acid | resistant | susceptible |
